{"source": "paper PMC10906223", "about": "(JCI Insight, 2024)", "key": {"[1]": {"test_system": "dispersed islet cells of donors with T1D", "experiment": "Glucagon secretion from dispersed islet cells of donors with T1D", "format": "cell-based, human", "conditions": "for Secretion of glucagon: dispersed islet cells, T1D donors, one value per donor, Figure 2H", "protocol": "(§1) Pancreata of nondiabetic C57BL/6J mice were digested using collagenase P (Roche Diagnostics, catalog 11213873001), and islets were manually picked up using a stereomicroscope (ZEISS Stemi 305). […] Isolated mouse islets or provided human islets were dispersed as described ([28]). Briefly, 100–120 islets were washed 2 times using modified HBSS, then dispersed in 600 μL Accutase (Innovative Cell Technologies, catalog AT-104) by gently pipetting up and down for 7 minutes at 37°C. […] Following refreshing of KRBH, cells were dispensed in 8 microfuge tubes (2,000 cells/tube) and treated with WCDD301, preclustered Ephrin-A5 Fc, or preclustered Fc in the presence or absence of the competitive inhibitor of EphA4 receptor, rhyncophylline ([60]) (MilliporeSigma, catalog SML2345). In the presence or absence of these effectors, secretion assay was performed sequentially as shown in Supplemental Table 5. […] Preclustering of Ephrin-A5 Fc was done by mixing Ephrin-A5 Fc or Fc alone (BioLegend, catalog 790102) with anti-Fc antibody (Invitrogen, catalog A16086) (1:10 molar ratio) 20 minutes before treatment ([62]). […] Shedding of cleaved EphA4 was measured from the cell culture medium. Experiments were performed by dispersion of 200 islets, and EphA4 levels in media were measured by EphA4 ELISA (ABclonal, catalog RK06572).\nThe Integrated Islet Distribution Program provided us human donor islets with their characteristics (Supplemental Table 6). Islets were centrifuged at 500g for 3 minutes, resuspended in CMRL 1066 medium (Gibco, catalog 1150-037) containing 11 mM glucose, and rested in an incubator overnight.\nFor the hormone secretion assay, islets or dispersed islet cells were adapted in KRBH buffer containing 11 mM glucose for 1 hour. Then, after 2 washes in HBSS containing 11 mM glucose, islets or cells were treated in the following sequential order in the presence or absence of WCDD301: incubation in KRBH (1 mM glucose, 30 minutes) followed by medium collection, incubation in KRBH (11 mM glucose, 30 minutes) followed by medium collection."}, "[2]": {"experiment": "Pharmacokinetics in CD-1 mice, subcutaneous or intravenous", "format": "in vivo, mouse", "conditions": "for Plasma concentration (Supplemental Figure 5A) / Plasma concentration (Supplemental Figure 5B): individual mice M1-M3, route not given", "protocol": "CD-1 mice were injected with WCDD301 subcutaneously (1 mg/kg, n = 3) or intravenously (1 mg/kg, n = 3), and blood was collected from saphenous vein directly into K2-EDTA–containing microcentrifuge tubes at 5, 10, and 15 minutes postdosing. An aliquot of 20 μL plasma was deproteinized using 200 μL of internal standard solution (100 ng/mL of labetalol and tolbutamide in acetonitrile), incubated for 10 minutes at RT, and centrifuged at 1,800g for 10 minutes at 4°C. Following 1:1 dilution of the supernatant with deionized water, 1 μL of the diluted sample was used for LC-MS/MS analysis (TripleQuad 6500, column: ACQUITY UPLC BEH C18 2.1 × 50 mm, 1.7 μm; flow rate: 0.6 mL/min, retention time: 1.60/1.78 WCDD301/labetalol)."}, "[3]": {"experiment": "Microsomal stability assay, CD-1 mouse liver microsomes", "format": "in vitro ADME", "conditions": "for Remaining in hepatic microsomes (100 at 0 min): mouse microsomes, Figure 5D", "protocol": "A total of 445 μL of the working solution was transferred into prewarmed incubation plates for treated (T60) and control (NCF60) measurements. After preincubation (10 minutes at 37°C with constant shaking), 54 μL was transferred to the blank plate, followed by 6 μL of NADPH and 180 μL quenching solution. In parallel, 5 μL of WCDD301 (100 μM) was added into incubation plates (T60 and NCF60) containing microsomes and mixed thoroughly (3 times). For the NCF60 plate, 50 μL of buffer was added, mixed (thoroughly, 3 times), shaken, and incubated at 37°C for 60 minutes. In the quenching plate T0, quenching solution (180 μL) and NADPH cofactor (6 μL) were added. For T60 plate, 54 μL of the mixture was placed into the quenching plate (for T0 point), followed by adding 44 μL NADPH cofactor with shaking incubation at 37°C for 60 minutes. Quenching solution (180 μL) was added to quenching plates at 5, 15, 30, 45, and 60 minutes, and 60 μL of sample was transferred from T60 plate per time point to the quenching plates. For the NCF60 plates, 60 μL sample from the NCF60 incubation plate was transferred to the quenching plate (containing quenching solution) at the 60-minute time point. After plates were shaken for 10 minutes and centrifuged (1,750g, 20 minutes at 4°C), 80 μL of the supernatant was transferred into 240 μL HPLC water for LC-MS/MS analysis. The following first-order kinetic equation was used to calculate half-life (T1/2): [drawing 3]; when\nThen, intrinsic clearance [CLint (microsomal; mic)] and hepatic clearance [CLint (liver)] were predicted using the following equations ([66]): […]"}, "[4]": {"test_system": "murine dispersed islet cells", "experiment": "Glucagon secretion from murine dispersed islet cells", "format": "cell-based, mouse", "conditions": "for Relative secretion of glucagon: one value per mouse", "protocol": "as §1"}}, "note": "“And” between values parts separate entries of the source, which are not always exact repeats. Equal entries are not always repeated.", "data": [{"smiles": "CC(=O)OCC(N)(COC(C)=O)COC(C)=O", "note": "[WCDD301, 2-(acetoxymethyl)-2-aminopropane-1,3-diyl diacetate]", "values": [{"measurement": "Effect on glucagon secretion", "setting": "[1]; dispersed islet cells from donors with long-standing T1D", "value": "reduced glucagon secretion"}, {"measurement": "Secretion of glucagon", "setting": "[1]; 1 mM glucose", "value": "13.445 and 14.59"}, {"measurement": "Secretion of glucagon", "setting": "[1]; 11 mM glucose", "value": "27.55 and 31.85"}, {"measurement": "Plasma concentration (Supplemental Figure 5A)", "setting": "[2]; 5 min", "value": "64.8 and 47.6 and 146"}, {"measurement": "Plasma concentration (Supplemental Figure 5B)", "setting": "[2]; 5 min", "value": "57.9 and 180 and 135"}, {"measurement": "Plasma concentration (Supplemental Figure 5A)", "setting": "[2]; 10 min", "value": "44.3 and 27.1 and 52.9"}, {"measurement": "Plasma concentration (Supplemental Figure 5B)", "setting": "[2]; 10 min", "value": "11 and 18.9 and 12.4"}, {"measurement": "Plasma concentration (Supplemental Figure 5A)", "setting": "[2]; 15 min", "value": "31.3 and 22.7 and 21.7"}, {"measurement": "Plasma concentration (Supplemental Figure 5B)", "setting": "[2]; 15 min", "value": "0 and 6.64 and 3.56"}, {"measurement": "Plasma concentration, subcutaneous compared with intravenous", "setting": "[2]; CD-1 mice, 1 mg/kg, 15 minutes", "value": "increased plasma concentrations of WCDD301 at 15 minutes following subcutaneous injection"}, {"measurement": "half-life at 1 µM", "setting": "[3]; CD-1, mouse, liver microsomes", "value": 1.56, "unit": "h"}, {"measurement": "microsomal CLint at 1 µM", "setting": "[3]; CD-1, mouse, liver microsomes, read-out: Intrinsic microsomal clearance", "value": 14.8, "unit": "µL/min/mg"}, {"measurement": "Remaining in hepatic microsomes (100 at 0 min)", "setting": "[3]; 5 min", "value": 95.6}, {"measurement": "Remaining in hepatic microsomes (100 at 0 min)", "setting": "[3]; 15 min", "value": 86.5}, {"measurement": "Remaining in hepatic microsomes (100 at 0 min)", "setting": "[3]; 30 min", "value": 79.8}, {"measurement": "Remaining in hepatic microsomes (100 at 0 min)", "setting": "[3]; 45 min", "value": 69.6}, {"measurement": "Remaining in hepatic microsomes (100 at 0 min)", "setting": "[3]; 60 min", "value": 64.2}, {"measurement": "Hepatic clearance", "setting": "[3]; mouse, predicted from microsomal data", "value": 58.7, "unit": "mL/min/kg"}, {"measurement": "Effect on arginine-stimulated glucagon secretion", "setting": "[4]; 1 mM and 11 mM glucose, Arg 25 mM, 301 3 µM, E 4 µg/mL, Supplemental Figure 2", "value": "its effect was suppressed"}, {"measurement": "Effect on glucagon secretion", "setting": "[4]; 11 mM glucose, Figure 1F", "value": "suppressed glucagon secretion"}, {"measurement": "Secretion of glucagon", "setting": "[4]; 301 (1.5 µM) + Rhy (2.5 µM), Glucose (1 mM), Figure 1H", "value": "1.25 and 1.09 and 1.1 and 1.05 and 1"}, {"measurement": "Secretion of glucagon", "setting": "[4]; 301 (1.5 µM) + Rhy (2.5 µM), Glucose (11 mM), Figure 1H", "value": "0.64 and 0.69 and 0.7 and 0.75 and 0.72"}, {"measurement": "Relative secretion of glucagon", "setting": "[4]; 301 (1.5 µM), Glucose (1 mM), Figure 1F", "value": "0.81 and 0.78 and 0.75 and 0.68 and 0.86"}, {"measurement": "Relative secretion of glucagon", "setting": "[4]; 301 (1.5 µM), Glucose (11 mM), Figure 1F", "value": "0.91 and 0.85 and 1.05 and 0.78 and 1.01"}, {"measurement": "Secretion of glucagon", "setting": "[4]; 301 (3 µM) + Rhy (2.5 µM), Glucose (1 mM), Figure 1H", "value": "0.87 and 0.81 and 0.9 and 0.85 and 0.8"}, {"measurement": "Secretion of glucagon", "setting": "[4]; 301 (3 µM) + Rhy (2.5 µM), Glucose (11 mM), Figure 1H", "value": "0.41 and 0.5 and 0.46 and 0.45 and 0.48"}, {"measurement": "Relative secretion of glucagon", "setting": "[4]; 301 (3 µM), Glucose (1 mM), Figure 1F", "value": "0.89 and 0.7 and 0.75 and 0.68"}, {"measurement": "Relative secretion of glucagon", "setting": "[4]; 301 (3 µM), Glucose (11 mM), Figure 1F", "value": "0.83 and 0.75 and 0.7 and 0.8 and 0.87"}, {"measurement": "Glucagon secretion in presence of rhyncophylline", "setting": "[4]; WCDD301 3 μM, Figure 1H", "value": "outcompeted the inhibitor"}]}]}
